Read-outs that look alike come from different tables or passages of the source.
What was measured:
NR1/NR2A NMDAR = target: T1, NR1/NR2A NMDAR (Homo sapiens, UniProt Q05586+Q12879); assay: NMDAR-mediated calcium flux assay, NR1/NR2A-transduced HEK293 cells; format: cell-based; details: for EC50: MDL105,519-protected cells after washout, read-out: EC50 of activation of NMDAR-mediated calcium flux; for effect on NMDAR activity at saturating concentrations of ligand: saturating concentrations of both ligands; for potentiation of NMDAR activity at submaximal ligand concentration: submaximal (EC30) D-serine or glutamate; for ligand-induced NMDAR-mediated calcium influx after protection with the compound and washout: cells cultured 16 h with compound, washed, stimulated with glycine/glutamate; for glutamate concentration dependence of inhibitor potency: CGP070667-protected cells
T1 construct: cDNAs for the GRIN1 (NM_007327), GRIN2A (NM_000833.3), GRIN2B (NM_000834.3) and Kir2.1 (NM_000891.2) proteins were purchased from GeneCopoeia; expressed in transfected cells; host or cells: HEK293 cells (ATCC) transduced with BacMam baculovirus (pFastBac-CMV-GW-DEST); virus made in Sf9
Method: (§2) 10^4 cells per 384-well were infected with baculovirus in suspension, seeded into a clear bottom, poly-D-lysine treated 384-well plate (Corning) and treated with the indicated concentrations of protection compound (100 µM MDL105,519 or 5 µM CGP070667). 16 h after transduction, cell medium was replaced with calcium6-dye (Molecular Devices, R8192) in incubation buffer (HBSS pH 7.5, 20 mM HEPES, 1 mM MgCl2, 1 mM probenecid) and cells were incubated at 37 °C for 2 h. […] In the beginning of each experiment baseline fluorescence (F0) was measure for 5–30 sec. For compound treatment, 10 µl of a 4× stock of compound diluted in assay buffer was added on the FDSS (speed 20 µl/s, tip height 1.8 mm) fluorescence was measured for 5 min (interval 1) before adding 10 µl of a 5× stock of ligand diluted in assay buffer and measurement of fluorescence for 5 min (interval 2). For single addition experiments, the maximal fluorescence ratio was calculated by dividing the maximal fluorescence in interval 1 by the average baseline fluorescence (Fmax/F0). For experiments requiring two additions, the integral of the fluorescence ratio was determined by calculating the area under the curve of the fluorescent ratios in interval 2. Data was analyzed as indicated and was normalized to controls located on the same plate.

NR1/NR2A-H44A/E226A = assay: NMDAR-mediated calcium flux assay, NR1/NR2A-H44A/E226A mutant in HEK293 cells; details: at the EC50 of D-serine
Method: as §2

NR1/NR2B NMDAR = target: T2, NR1/NR2B NMDAR (Homo sapiens, UniProt Q05586+Q13224); assay: NMDAR-mediated calcium flux assay, NR1/NR2B-transduced HEK293 cells; format: cell-based
T2 construct: cDNAs for the GRIN1 (NM_007327), GRIN2A (NM_000833.3), GRIN2B (NM_000834.3) and Kir2.1 (NM_000891.2) proteins were purchased from GeneCopoeia; expressed in transfected cells; host or cells: HEK293 cells (ATCC) transduced with BacMam baculovirus (pFastBac-CMV-GW-DEST)
Method: 16 h after transduction, cell medium was replaced with calcium6-dye (Molecular Devices, R8192) in incubation buffer (HBSS pH 7.5, 20 mM HEPES, 1 mM MgCl2, 1 mM probenecid) and cells were incubated at 37 °C for 2 h. Before measurement, the dye-solution was replaced with 30 ul assay buffer (HBSS pH 7.5, 20 mM HEPES, 1.8 mM CaCl2). Cells were allowed to rest for 10 min at room temperature before measuring calcium flux on a FDSS7000 plate reader (Hamamatsu) with the following settings: 1 sec measurement interval, 200 ms exposure time, 2 × 2 binning, Ex480 nm:Em540 nm, sensitivity 1–3. In the beginning of each experiment baseline fluorescence (F0) was measure for 5–30 sec. For compound treatment, 10 µl of a 4× stock of compound diluted in assay buffer was added on the FDSS (speed 20 µl/s, tip height 1.8 mm) fluorescence was measured for 5 min (interval 1) before adding 10 µl of a 5× stock of ligand diluted in assay buffer and measurement of fluorescence for 5 min (interval 2). For single addition experiments, the maximal fluorescence ratio was calculated by dividing the maximal fluorescence in interval 1 by the average baseline fluorescence (Fmax/F0). For experiments requiring two additions, the integral of the fluorescence ratio was determined by calculating the area under the curve of the fluorescent ratios in interval 2. Data was analyzed as indicated and was normalized to controls located on the same plate.

NR1/NR2A-V783F = target: T3, NR1/NR2A-V783F (Homo sapiens, UniProt Q05586+Q12879, V783F); assay: NMDAR-mediated calcium flux assay, NR1/NR2A-V783F mutant in HEK293 cells; format: cell-based; details: MDL105,519-protected cells
T3 construct: cDNAs for the GRIN1 (NM_007327), GRIN2A (NM_000833.3), GRIN2B (NM_000834.3) and Kir2.1 (NM_000891.2) proteins were purchased from GeneCopoeia; expressed in transfected cells; host or cells: HEK293 cells transduced with BacMam baculovirus
Method: 16 h after transduction, cell medium was replaced with calcium6-dye (Molecular Devices, R8192) in incubation buffer (HBSS pH 7.5, 20 mM HEPES, 1 mM MgCl2, 1 mM probenecid) and cells were incubated at 37 °C for 2 h. Before measurement, the dye-solution was replaced with 30 ul assay buffer (HBSS pH 7.5, 20 mM HEPES, 1.8 mM CaCl2). Cells were allowed to rest for 10 min at room temperature before measuring calcium flux on a FDSS7000 plate reader (Hamamatsu) with the following settings: 1 sec measurement interval, 200 ms exposure time, 2 × 2 binning, Ex480 nm:Em540 nm, sensitivity 1–3. In the beginning of each experiment baseline fluorescence (F0) was measure for 5–30 sec. For compound treatment, 10 µl of a 4× stock of compound diluted in assay buffer was added on the FDSS (speed 20 µl/s, tip height 1.8 mm) fluorescence was measured for 5 min (interval 1) before adding 10 µl of a 5× stock of ligand diluted in assay buffer and measurement of fluorescence for 5 min (interval 2). For single addition experiments, the maximal fluorescence ratio was calculated by dividing the maximal fluorescence in interval 1 by the average baseline fluorescence (Fmax/F0). For experiments requiring two additions, the integral of the fluorescence ratio was determined by calculating the area under the curve of the fluorescent ratios in interval 2. […]

HEK293 cells = assay: Cell viability (CellTiterGlo) of HEK293 cells, toxicity of the compound itself; format: cell-based, human; details: 16 h treatment
Method: (§1) Cell viability was assessed Cell Titer Glo (Promega) and measured on an Envision plate reader (PerkinElmer).

[1] = system: NR1/2A-transduced HEK293 cells; assay: Cell viability (CellTiterGlo) of NR1/2A-transduced HEK293 cells, protection from excitotoxicity; format: cell-based, human
Method: as §1

[2] = 16 h after transduction with concurrent treatment
[3] = HEK293 cells after protection with MDL105,519, stimulation with EC80 of both ligands, mean, n > 3, n.d. = not detectable, read-out: IC50 NR2A
[4] = HEK293 cells after protection with MDL105,519, stimulation with EC80 of both ligands, mean, n > 3, n.d. = not detectable, read-out: IC50 NR2B

T1 sequence (Q12879 23-1464, other chains not shown): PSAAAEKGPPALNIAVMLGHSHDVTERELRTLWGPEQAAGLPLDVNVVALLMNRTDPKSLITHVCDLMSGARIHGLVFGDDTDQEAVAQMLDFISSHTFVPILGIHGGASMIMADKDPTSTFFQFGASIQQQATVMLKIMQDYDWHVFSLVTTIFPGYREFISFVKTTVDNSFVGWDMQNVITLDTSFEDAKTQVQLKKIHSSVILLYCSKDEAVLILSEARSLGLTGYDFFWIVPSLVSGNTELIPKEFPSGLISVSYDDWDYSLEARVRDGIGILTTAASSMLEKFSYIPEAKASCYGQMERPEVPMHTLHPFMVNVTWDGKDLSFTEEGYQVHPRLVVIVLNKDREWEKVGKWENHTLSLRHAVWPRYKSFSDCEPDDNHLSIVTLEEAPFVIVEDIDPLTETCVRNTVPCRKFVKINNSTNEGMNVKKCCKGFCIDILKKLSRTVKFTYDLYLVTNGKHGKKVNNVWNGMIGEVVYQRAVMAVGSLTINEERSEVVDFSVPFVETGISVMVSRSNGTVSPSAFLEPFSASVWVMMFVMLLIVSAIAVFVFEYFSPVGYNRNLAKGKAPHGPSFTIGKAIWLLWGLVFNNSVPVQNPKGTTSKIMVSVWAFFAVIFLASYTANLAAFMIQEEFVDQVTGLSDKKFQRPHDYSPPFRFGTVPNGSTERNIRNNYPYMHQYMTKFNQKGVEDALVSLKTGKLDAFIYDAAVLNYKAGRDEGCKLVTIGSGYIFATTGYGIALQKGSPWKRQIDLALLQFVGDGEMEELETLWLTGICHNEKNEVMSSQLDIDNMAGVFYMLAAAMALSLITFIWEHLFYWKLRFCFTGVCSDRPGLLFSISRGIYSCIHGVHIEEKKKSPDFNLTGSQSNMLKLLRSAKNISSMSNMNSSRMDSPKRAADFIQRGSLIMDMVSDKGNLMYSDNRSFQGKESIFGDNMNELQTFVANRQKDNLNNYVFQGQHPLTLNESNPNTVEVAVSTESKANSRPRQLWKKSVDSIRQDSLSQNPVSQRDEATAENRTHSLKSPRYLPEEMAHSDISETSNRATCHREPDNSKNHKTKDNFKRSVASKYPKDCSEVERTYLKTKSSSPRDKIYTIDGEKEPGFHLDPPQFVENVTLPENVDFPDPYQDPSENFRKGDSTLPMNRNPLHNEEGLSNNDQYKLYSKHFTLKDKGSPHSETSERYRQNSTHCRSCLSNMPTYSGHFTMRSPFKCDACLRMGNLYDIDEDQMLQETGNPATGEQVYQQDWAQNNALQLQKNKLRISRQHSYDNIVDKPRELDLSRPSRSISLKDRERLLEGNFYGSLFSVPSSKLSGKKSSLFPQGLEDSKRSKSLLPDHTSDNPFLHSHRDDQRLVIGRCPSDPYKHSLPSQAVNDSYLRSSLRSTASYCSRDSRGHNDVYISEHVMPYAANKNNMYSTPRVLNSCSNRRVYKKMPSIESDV
T2 sequence (Q13224 27-1484, other chains not shown): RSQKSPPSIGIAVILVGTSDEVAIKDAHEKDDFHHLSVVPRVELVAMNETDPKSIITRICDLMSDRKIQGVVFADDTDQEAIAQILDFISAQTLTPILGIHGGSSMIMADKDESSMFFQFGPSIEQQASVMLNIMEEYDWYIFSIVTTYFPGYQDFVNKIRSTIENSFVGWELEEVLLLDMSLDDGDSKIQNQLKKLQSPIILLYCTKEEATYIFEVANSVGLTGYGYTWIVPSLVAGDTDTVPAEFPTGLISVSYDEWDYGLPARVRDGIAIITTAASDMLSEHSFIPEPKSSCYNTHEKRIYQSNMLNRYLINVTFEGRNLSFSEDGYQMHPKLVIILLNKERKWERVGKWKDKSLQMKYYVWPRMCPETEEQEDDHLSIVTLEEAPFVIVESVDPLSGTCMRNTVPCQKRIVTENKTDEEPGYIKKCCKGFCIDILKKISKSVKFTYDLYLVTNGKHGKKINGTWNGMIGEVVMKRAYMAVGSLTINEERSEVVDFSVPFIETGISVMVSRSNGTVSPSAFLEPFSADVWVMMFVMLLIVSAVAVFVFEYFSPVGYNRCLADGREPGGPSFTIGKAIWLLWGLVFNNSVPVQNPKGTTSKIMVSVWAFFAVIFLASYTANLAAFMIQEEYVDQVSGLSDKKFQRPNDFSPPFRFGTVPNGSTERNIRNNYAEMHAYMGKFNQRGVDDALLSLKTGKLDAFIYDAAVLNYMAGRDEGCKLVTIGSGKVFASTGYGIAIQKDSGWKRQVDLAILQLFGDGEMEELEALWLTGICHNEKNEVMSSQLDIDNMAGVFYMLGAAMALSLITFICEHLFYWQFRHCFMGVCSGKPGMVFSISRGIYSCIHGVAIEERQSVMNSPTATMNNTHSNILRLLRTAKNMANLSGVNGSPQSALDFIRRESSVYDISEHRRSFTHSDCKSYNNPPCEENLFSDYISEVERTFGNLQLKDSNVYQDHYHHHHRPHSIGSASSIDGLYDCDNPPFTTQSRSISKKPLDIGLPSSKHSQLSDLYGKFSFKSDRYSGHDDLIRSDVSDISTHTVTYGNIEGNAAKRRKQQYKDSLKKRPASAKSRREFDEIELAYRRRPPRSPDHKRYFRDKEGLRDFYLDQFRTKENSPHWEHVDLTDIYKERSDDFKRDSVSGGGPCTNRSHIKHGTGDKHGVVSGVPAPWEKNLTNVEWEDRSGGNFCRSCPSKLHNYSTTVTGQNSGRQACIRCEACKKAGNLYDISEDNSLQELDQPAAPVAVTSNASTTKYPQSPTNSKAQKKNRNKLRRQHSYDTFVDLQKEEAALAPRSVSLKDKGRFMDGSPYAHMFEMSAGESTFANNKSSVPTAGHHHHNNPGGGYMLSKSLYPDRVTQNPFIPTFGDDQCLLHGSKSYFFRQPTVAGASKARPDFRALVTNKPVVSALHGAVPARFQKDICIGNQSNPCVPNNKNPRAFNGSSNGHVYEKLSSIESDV
T3 sequence (Q12879 23-1464 V783F, other chains not shown): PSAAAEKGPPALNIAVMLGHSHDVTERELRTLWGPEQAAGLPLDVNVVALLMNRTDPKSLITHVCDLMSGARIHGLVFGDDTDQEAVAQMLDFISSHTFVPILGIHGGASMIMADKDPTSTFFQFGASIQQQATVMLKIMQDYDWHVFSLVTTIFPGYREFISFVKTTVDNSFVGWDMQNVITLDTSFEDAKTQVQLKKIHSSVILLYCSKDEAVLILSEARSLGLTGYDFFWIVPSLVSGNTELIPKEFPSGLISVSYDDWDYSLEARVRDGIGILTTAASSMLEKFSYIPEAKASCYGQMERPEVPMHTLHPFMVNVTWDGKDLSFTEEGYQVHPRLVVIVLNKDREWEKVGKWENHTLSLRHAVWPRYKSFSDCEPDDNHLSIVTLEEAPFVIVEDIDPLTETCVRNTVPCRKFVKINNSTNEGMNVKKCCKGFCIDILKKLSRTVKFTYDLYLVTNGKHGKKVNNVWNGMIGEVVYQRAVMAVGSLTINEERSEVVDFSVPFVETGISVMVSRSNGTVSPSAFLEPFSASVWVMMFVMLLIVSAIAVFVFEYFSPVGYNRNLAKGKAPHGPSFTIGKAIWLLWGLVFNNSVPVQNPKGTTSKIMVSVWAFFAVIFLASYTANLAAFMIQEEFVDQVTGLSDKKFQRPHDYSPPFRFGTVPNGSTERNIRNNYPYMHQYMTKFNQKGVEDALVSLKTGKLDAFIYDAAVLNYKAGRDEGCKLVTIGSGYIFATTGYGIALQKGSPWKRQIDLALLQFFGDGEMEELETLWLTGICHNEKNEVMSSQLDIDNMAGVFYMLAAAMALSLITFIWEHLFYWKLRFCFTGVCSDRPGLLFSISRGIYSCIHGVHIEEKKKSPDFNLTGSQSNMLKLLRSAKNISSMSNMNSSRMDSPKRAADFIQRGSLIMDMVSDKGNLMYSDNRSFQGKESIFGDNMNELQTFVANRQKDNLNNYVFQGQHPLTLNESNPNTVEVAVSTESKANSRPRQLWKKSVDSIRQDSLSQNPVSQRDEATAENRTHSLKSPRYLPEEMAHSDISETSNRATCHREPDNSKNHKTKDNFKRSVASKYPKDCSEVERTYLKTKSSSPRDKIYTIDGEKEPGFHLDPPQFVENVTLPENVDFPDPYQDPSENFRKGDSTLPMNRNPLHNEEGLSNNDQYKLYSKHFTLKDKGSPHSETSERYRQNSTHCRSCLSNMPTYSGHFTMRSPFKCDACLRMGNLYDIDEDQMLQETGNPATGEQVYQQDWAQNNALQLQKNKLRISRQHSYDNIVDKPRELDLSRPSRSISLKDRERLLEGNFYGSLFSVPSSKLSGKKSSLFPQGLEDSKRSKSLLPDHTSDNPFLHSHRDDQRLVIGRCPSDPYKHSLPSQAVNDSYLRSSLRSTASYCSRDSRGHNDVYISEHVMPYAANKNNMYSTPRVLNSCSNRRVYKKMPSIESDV

N[C@H](CO)C(=O)O [D-serine]
EC50 (NR1/NR2A NMDAR): ~9 µM

O=C(O)CN(CCN(CC(=O)O)CC(=O)O)CC(=O)O [EDTA]
sensitivity of the double mutant to activation (NR1/NR2A-H44A/E226A; compared to wildtype NR2A): less sensitive

CCN(Cc1cc(=O)n2c3c(sc2n1)CCC3)c1ccc(F)cc1 [GNE-8324]
effect on NMDAR activity at saturating concentrations of ligand (NR1/NR2A NMDAR): enhanced NMDAR activity | potentiation of NMDAR activity at submaximal ligand concentration (NR1/NR2A NMDAR): concentration-dependent potentiation | effect on NR1/2B-mediated calcium flux (NR1/NR2B NMDAR): no effect | sensitivity of NR1/2A-V783F to the compound (NR1/NR2A-V783F): complete loss of sensitivity

CNC1(c2ccccc2Cl)CCCCC1=O (stereo not shown) [Ketamine]
IC50 (NR1/NR2A NMDAR): 23 µM | ligand-induced NMDAR-mediated calcium influx after protection with the compound and washout (NR1/NR2A NMDAR): did not observe significant ligand-induced NMDAR-mediated calcium influx | IC50 (NR1/NR2B NMDAR): 12.1 µM | toxic effect on HEK293 cells (HEK293 cells): dose-dependent toxic effect | protection from NMDAR-mediated excitotoxicity (cell viability) [1, 2]: could be rescued

O=c1[nH]c2cc(Cl)ccc2c(O)c1-c1cccc(Oc2ccccc2)c1 [L701,324]
IC50 (NR1/NR2A NMDAR; [3]): 1.45 µM | IC50 (NR1/NR2B NMDAR; [4]): 1.91 µM

N[C@@H](CO)C(=O)O [L-serine]
right shift in potency as compared to D-serine (NR1/NR2A NMDAR; MDL105,519-protected cells, saturating glutamate): ~ 200 fold

O=C(O)C(=Cc1c(C(=O)O)[nH]c2cc(Cl)cc(Cl)c12)c1ccccc1 [MDL105,519]
glutamate concentration dependence of inhibitor potency (NR1/NR2A NMDAR): only minor effects | IC50 (NR1/NR2A NMDAR; [3]): 0.62 µM | shift of inhibitor dose response curve, EC100 vs EC20 of D-serine (NR1/NR2A NMDAR; MDL105,519-protected cells): right shift | ligand-induced NMDAR-mediated calcium influx after protection with the compound and washout (NR1/NR2A NMDAR): enabled the largest dynamic range of NMDAR-activity | IC50 (NR1/NR2B NMDAR; [4]): 1.65 µM | protection from NMDAR-mediated excitotoxicity (cell viability) [1, 2]: dose-dependent rescue of cell viability | cell viability compared to non-transduced cells ([1]; overnight (16 h) treatment of NR1/2A-transduced cells, screen of 120 compounds): > 70%

C[C@]12N[C@H](Cc3ccccc31)c1ccccc12 [MK801]
glutamate concentration dependence of inhibitor potency (NR1/NR2A NMDAR): only minor effects | change of signal on NMDAR block in the absence of ligand (basal activity) (NR1/NR2A NMDAR; after washout of MDL105,519, no ligand): only a weak decrease of signal | ligand-induced NMDAR-mediated calcium influx after protection with the compound and washout (NR1/NR2A NMDAR): did not observe significant ligand-induced NMDAR-mediated calcium influx | IC50 (NR1/NR2B NMDAR; [4]): 0.15 µM | protection from NMDAR-mediated excitotoxicity (cell viability) [1, 2]: could be rescued

[Cl-].[Cl-].[Mg+2] [MgCl2, magnesium chloride]
sensitivity of NR1/NR2A to inhibition with increasing Kir2.1 baculovirus titer (NR1/NR2A NMDAR; co-transduction with Kir2.1 (KCNJ2), MDL105,519-protected cells): increased sensitivity | concentration giving partial rescue of cell viability [1, 2]: > 10 mM | protection from NMDAR-mediated excitotoxicity (cell viability) [1, 2]: partial rescue

C[C@H](NC(c1cccc2[nH]c(=O)c(=O)[nH]c12)P(=O)(O)O)c1ccc(Br)cc1 (stereo partly shown) [NVP-AAM077]
IC50 (NR1/NR2A NMDAR; [3]): 2.46 µM | IC50 (NR1/NR2B NMDAR; [4]): 11.9 µM

C[C@@H](CN1CCC(Cc2ccccc2)CC1)[C@@H](O)c1ccc(O)cc1 [RO25-6981]
IC50 (NR1/NR2B NMDAR; [4]): 0.1 µM

NCC(=O)O [glycine]
sensitivity of NMDAR-mediated calcium flux to ligand (NR1/NR2A NMDAR; CGP070667-protected cells after washout): insensitivity | EC50 (NR1/NR2A NMDAR): ~12 µM

[Zn+2] [zinc]
IC50 (NR1/NR2A NMDAR; MDL105,519-protected cells, at the EC50 of D-serine, read-out: IC50 for zinc, wildtype receptor): ~0.1 µM | IC50 (NR1/NR2A-H44A/E226A; read-out: IC50 for zinc, NR2A-H44A/E226A double mutant, MDL105,519-protected cells): > 10 µM

pregnenolone sulfate [PS]
effect on NMDAR activity at saturating concentrations of ligand (NR1/NR2A NMDAR): supramaximal activation | potentiation of NMDAR activity at submaximal ligand concentration (NR1/NR2A NMDAR): enhanced NMDAR activity | effect on NMDAR activity at saturating concentrations of ligand (NR1/NR2B NMDAR; saturating concentrations of both ligands): supramaximal activation | potentiation of NMDAR activity at submaximal ligand concentration (NR1/NR2B NMDAR; submaximal (EC30) D-serine or glutamate): enhanced NMDAR activity
